Our source for the inhibition and IC50 values is patent US12617777B2, “GPR84 antagonists and uses thereof” (Liminal BioSciences Limited, priority 2021, dated 2026).

The assay has as its target T1, human GPR84 receptor (Homo sapiens, UniProt Q9NQS5).
T1 construct: host or cells: HEK293, transient transfection
Put plainly: Gαi biosensor BRET assay in HEK293 cells (antagonism of ZQ-16). Conditions: for inhibition at 10 µM: HEK293, single concentration 10 μM (designated F); for inhibition at 2 µM: HEK293, single concentration 2 μM (designated A); for IC50: HEK293 cells, antagonism of 200 nmol/L ZQ-16; for inhibition at 25 µM: HEK293, single concentration 25 μM (designated I). Type of assay: cell-based. An excerpt: Background—The following assays can be used for determination of GPR84 activation in living HEK293 cells. The Gai BRET biosensor (Gagnon et al., 2018; Gales et al., 2006. Nat StructMol Biol. 13, 778-86; Saulieres et al., 2012. Nat Chem Biol. 8, 622-30) allows to directly monitor GPR84-mediated activation of Gai. The Gai biosensor consists of a Rluc8-tagged Gαi2 subunit, a GFP10-tagged Gγ2 subunit, and an untagged Gβ1. Agonist stimulation and GPR84 activation triggers a physical separation between the RLuc8-Gαi donor and the GFP10-Gγ2 acceptor, resulting in a decrease in BRET signal whose amplitude is correlated to ligand efficacy (Gales et al., 2006). Moreover, signaling functions of GPCRs are tightly regulated by endocytosis, the targeting of receptors to endosomes and their sorting to lysosomes or recycling to the plasma membrane. The early endosomes (EEs) trafficking assay (Namkung et al., 2016. Nat Commun. 7, 12178) uses Rluc8-tagged GPR84 and Renilla GFP (rGFP) attached to the FYVE domain from human endofin/zinc finger FYVE domain-containing protein 16, which binds phosphatidylinositol 3-phosphate in EEs. Agonist stimulation of GPR84-Rluc8 leads to trafficking of the receptor to EEs, and ensuing increase of the donor concentration relative to the rGFP-FYVE acceptor anchored in the same cellular compartment, and thus results in an increase in BRET signal.
Plasmids—The cDNA clones for human GPR84 receptor, human Gai2, Gp1, and Gy2 were obtained from the cDNA Resource Center (www.cdna.org). GFP10 (F64L, S147P, S202F and H231L variant of Aequorea victoria Green Fluorescent Protein) gBlocks gene fragments (Integrated DNA Technologies, IA) and linker were inserted in frame at the N-terminus of human Gγ2. Rluc8 (A55T, C124A, S130A, K136R, A143M, M185V, M253L, and S287L variant of the Renilla renformis luciferase) gBlocks gene fragment was inserted with linkers in frame in between residues 91 and 92 of Gai2 or at the C-terminus of GPR84. The FYVE domain from human endofin (residues Q739 to K806) attached in frame at the C terminus of a humanized Renilla GFP (rGFP), were synthesized as gBlocks gene fragments.
Bioluminescence Resonance Energy Transfer (BRET) Measurement—HEK293 cells were transfected with GPR84-Rluc8 and rGFP-FYVE for the EEs trafficking biosensor or with GPR84, Gαi2-Rluc8, GFP10-Gγ2, and Gβ1 for the Gαi biosensor. The following day, transiently transfected cells were seeded in 96-well white clear bottom microplates coated with poly-D-lysine and left in culture for 24 hours. Cells were washed once with Tyrode's buffer (140 mmol/L NaCl, 1 mmol/L CaCl2, 2.7 mmol/L KCl, 0.49 mmol/L MgCl2, 0.37 mmol/L NaH2PO4, 5.6 mmol/L glucose, 12 mmol/L NaHCO3, and 25 mmol/L HEPES, pH 7.5) before performing assays in Tyrode's buffer. Test compounds were incubated with cells for 5 (Gαi) or 15 (EEs) minutes at 37° C. before addition of 200 nmol/L of the GPR84 agonist ZQ-16 (2-(Hexylthio)-6-hydroxy-4(3H)-pyrimidinone) for 5 minutes at room temperature (Gαi) or 30 minutes at 37° C. (EEs). The Rluc8 substrate coelenterazine 400A (Prolume, Lakeside, AZ) was added at a final concentration of 5 μmol/L and BRET readings were collected using an Infinite M1000 microplate reader (Tecan, Morrisville, NC). BRET^2 readings between Rluc8 and GFP10 or rGFP were collected by sequential integration of the signals detected in the 370 to 450 nm (Rluc8) and 510 to 540 nm (GFP10, rGFP) windows. The BRET signal was calculated as the ratio of light emitted by acceptor (GFP10, rGFP) over the light emitted by donor (Rluc8). The values were corrected to net BRET by subtracting the background BRET signal obtained in cells transfected with Rluc8 constructs alone. Ligand-promoted net BRET values were calculated by subtracting vehicle-induced net BRET from ligand-induced net BRET.

Structures are written as SMILES.

T1 sequence (Q9NQS5 whole entry): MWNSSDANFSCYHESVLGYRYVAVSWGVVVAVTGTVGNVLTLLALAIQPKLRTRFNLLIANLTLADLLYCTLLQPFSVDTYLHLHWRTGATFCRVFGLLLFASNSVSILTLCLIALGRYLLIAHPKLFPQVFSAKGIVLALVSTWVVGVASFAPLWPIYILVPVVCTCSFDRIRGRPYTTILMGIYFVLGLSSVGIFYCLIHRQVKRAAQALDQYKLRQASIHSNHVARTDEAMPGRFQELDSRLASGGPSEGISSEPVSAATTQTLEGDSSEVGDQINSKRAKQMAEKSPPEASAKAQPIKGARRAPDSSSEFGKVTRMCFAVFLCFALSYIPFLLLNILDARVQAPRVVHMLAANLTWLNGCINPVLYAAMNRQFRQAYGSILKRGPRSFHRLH

In the case of `Cc1cc(C#CCN)cnc1-c1cn(CC2CCCCO2)nn1` (stereo not drawn) [Compound I-826, 3-(5-methyl-6-(1-((tetrahydro-2H-pyran-2-yl)methyl)-1H-1,2,3-triazol-4-yl)pyridin-3-yl)prop-2-yn-1-amine], the inhibition (usually the change of the read-out against control, counted positive when it falls) at 10 µM is greater than 75%.
Consider `Cc1cc(C#CC2CC2)ccc1-c1cn(CC2(C)CCCCO2)nn1` (stereo not drawn) [Compound I-554], for which the inhibition at 2 µM was greater than 75%.
Consider `Cc1ccc(-c2ccc(C3CN(CC4CCCCO4)C(=O)O3)c(C)c2)cn1` (stereo not drawn) [Compound I-406, 5-(2-methyl-4-(6-methylpyridin-3-yl)phenyl)-3-((tetrahydro-2H-pyran-2-yl)methyl)oxazolidin-2-one], for which the inhibition at 10 µM was no more than 25%.
For `CC(C)Oc1cc(N2CC(C)(C)C2)ccc1-c1cn(CC2CCCCO2)nn1` (stereo not drawn) [Compound I-271], the inhibition at 2 µM is greater than 75%.
Still for that read-out and setting: to `Cc1cc(Cn2cc(-c3ccc(C#CC4CC4)cc3C)nn2)on1` [Compound I-557] belongs no more than 25%.
The compound `FC1(F)CC(C#Cc2cnc(-c3cn(CC4OCC5(CC5)CO4)nn3)c(OC3CC3)c2)C1` (stereo not drawn) [Compound I-862] gave an inhibition at 10 µM of 50 to 75%.
On the same count and under the same terms, as for `COC(c1cn(CC2CCCCO2)nn1)c1cc(C#CC2CC2)ccc1F` (stereo not drawn) [Compound I-621], the figure is 50 to 75%; as for `Cc1cccc(C#Cc2cn(CC3OCC(C)(C)CO3)nn2)c1` [Compound I-790, 1-((5,5-dimethyl-1,3-dioxan-2-yl)methyl)-4-(m-tolylethynyl)-1H-1,2,3-triazole], no more than 25%; as for `Cc1cc(C#CCN2CC(C)(C)C2)cnc1-c1cn(C[C@H]2CCCCO2)nn1` [Compound I-284], greater than 75%.
On the same count and under the same terms, to `CN(c1cccc(C#N)c1)c1cn(CC2OCC(C)(C)CO2)nn1` [Compound I-802] belongs greater than 75%; to `Cc1ccc(OCc2ccccn2)cc1Cc1cn(CC2CCCCO2)nn1` (stereo not drawn) [Compound I-444], no more than 25%; to `Cc1cc(N2CCN(c3ccccn3)CC2)ccc1-c1cn(CC2CCCCO2)nn1` (stereo not drawn) [Compound I-533], no more than 25%.
For the compound `Cc1ccc(C#CC2CC2)cc1Oc1cn(CC2OCC(C)(C)CO2)nn1` [Compound I-773], the IC50 (as a rule, the midpoint of a concentration-inhibition curve) lay within 300 to 1000 nM.
Take `COCCn1cc(-c2ccc(C#CCNc3ccccc3)cc2C)nn1` [Compound I-161]: the inhibition at 10 µM was no more than 25%.
`CC(C)Oc1cc(C#CC2CC2)cnc1-c1cn(C[C@H]2CCCCO2)nn1` [Compound I-659] showed an inhibition at 10 µM greater than 75% and an IC50 of no more than 300 nM.
As for `Cc1cc(N2CCCC2)ccc1-c1cn(CC2CCCCO2)nn1` (stereo not drawn) [Compound I-472], the inhibition at 10 µM was 25 to 50%.
Turning to `Cc1cc(C#CC2CC2)ccc1-c1cn(CC2CCCO2)nn1` (stereo not drawn) [Compound I-60], the IC50 is greater than 3000 nM.
With `CC(=O)N1CCCCC1Cn1cc(-c2ccc(C#CC3CC3)cc2C)nn1` (stereo not drawn) [Compound I-139], the inhibition at 10 µM is no more than 25%.
Still for that read-out and setting: as for `CC(=O)NCC#Cc1ccc(-c2cn(C[C@H]3CCCCO3)nn2)c(C)c1` [Compound I-193], the figure is 25 to 50%.
Compound `CC(=O)N1CCOC(Cn2cc(-c3ccc(C#CC4CC4)cc3C)nn2)C1` (stereo not drawn) [Compound I-96] yielded an inhibition at 10 µM of no more than 25%.
Take `Cc1cc(N2CCCC(N(C)Cc3ccccc3)C2)ccc1-c1cn(CC2CCCCO2)nn1` (stereo not drawn) [Compound I-171]: the inhibition at 10 µM is greater than 75% and the IC50 lay in the range of 1000 to 3000 nM.
In turn, `CC1(C)CN(c2ccc(-c3cn(CC4CCCCO4)nn3)c(Cl)c2)C1` (stereo not drawn) [Compound I-254] came in with an inhibition at 10 µM of 25 to 50%.
Same read-out and setting: to `Cc1cc(C#CC2(O)CC2)ccc1-c1cn(CC2CCCCO2)nn1` (stereo not drawn) [Compound I-215] belongs 50 to 75%.
Turning to `Cc1cc(C#CC2CC2)ccc1-c1cn(CCOC(C)(C)C)nn1` [Compound I-98], the inhibition at 10 µM was no more than 25%.
Take `COC(Cn1cc(-c2ccc(C#CC3CC3)cc2C)nn1)c1ccccc1` (stereo not drawn) [Compound I-73]: the inhibition at 25 µM is no more than 25%.
As for `Cc1cc(N2CC(C)(CNS(C)(=O)=O)C2)ccc1-c1cn(CC2CCCCO2)nn1` (stereo not drawn) [Compound I-448], the inhibition at 10 µM lay in the range of 50 to 75%.
As to `Cc1cc(C#CC2CC2)ccc1-c1cn(CC2CC(F)(F)CO2)nn1` (stereo not drawn) [Compound I-489], the inhibition at 2 µM is no more than 25%.
On the same count and under the same terms, to `Cc1cc(C#CC2CC2)ccc1-c1cn(CC2CCC(=O)N2)nn1` (stereo not drawn) [Compound I-542] belongs no more than 25%.
As to `Cc1ccc(C#CC2CC2)cc1Sc1cn(CC2OCC(C)(C)CO2)nn1` [Compound I-781, 4-((5-(cyclopropylethynyl)-2-methylphenyl)thio)-1-((5,5-dimethyl-1,3-dioxan-2-yl)methyl)-1H-1,2,3-triazole], the inhibition at 10 µM was greater than 75%.
Still for that read-out and setting: as for `Cc1cc(N2CC(C)(C)C2)ccc1-c1cn(CC2OCC(F)(F)CO2)nn1` [Compound I-687], the figure is 50 to 75%.
The compound `Cc1cc(C#CC2CC2)cnc1-c1cn(CC2CCCCO2)nn1` (stereo not drawn) [Compound I-866] registered an IC50 of 1000 to 3000 nM.
As to `Cc1cc(NC(=O)c2ccccc2)ccc1-c1cn(CC2CCCCO2)nn1` (stereo not drawn) [Compound I-483], the inhibition at 10 µM is no more than 25%.
For `Cc1cc(N2C3CCC2CN(Cc2ccccn2)C3)ccc1-c1cn(CC2CCCCO2)nn1` (stereo not drawn) [Compound I-430], the inhibition at 10 µM was in the range of 25 to 50% and the IC50 fell in the range of 300 to 1000 nM.
Consider `CC1(C)COC(Cn2cc(-c3ccc(N4CC(C)(CO)C4)cc3CC(F)(F)F)nn2)C1` (stereo not drawn) [Compound I-740], for which the inhibition at 2 µM was greater than 75% and the IC50 is no more than 300 nM.
Regarding `Cc1cc(C#CC2CC2)ccc1-c1cn(CC2CCCCN2S(C)(=O)=O)nn1` (stereo not drawn) [Compound I-191], the inhibition at 10 µM is no more than 25%.
The same measure, in the same setting: as for `COCC1(C)CN(c2ccc(-c3cn(CC4CCCCO4)nn3)c(C)c2)C1` (stereo not drawn) [Compound I-439], the figure is 25 to 50%; as for `Cc1cc(C#CC2CC2)ccc1-c1cn(CC2OCCO2)nn1` [Compound I-457], no more than 25%; as for `COc1cccc(N(C)c2cn(CC3OCC(C)(C)CO3)nn2)c1` [Compound I-812], no more than 25%.
Compound `Cc1cc(C#CC2CC2)ccc1-c1cn(CC(C)Oc2ccccc2)nn1` (stereo not drawn) [Compound I-72] displayed an inhibition at 25 µM of no more than 25%.
In the case of `CC(C)Oc1cc(N2CC(C)(C)C2)cnc1-c1cn(CC2CCCCO2)nn1` (stereo not drawn) [Compound I-630], the inhibition at 10 µM was greater than 75%.
`CCc1cc(N2CC(C)(O)C2)ccc1-c1cn(CC2OCC(C)(C)CO2)nn1` [Compound I-641]: the inhibition at 10 µM is greater than 75% and the IC50 was 300 to 1000 nM.
Compound `Cn1cc(-c2ccc(C#CC3CC3)cc2)nc1CC1CCCCO1` (stereo not drawn) [Compound I-337] came in with an inhibition at 5 µM (HEK293, single concentration 5 μM (designated D)) of no more than 25%.
`CCc1cc(C#CC2CC2)cnc1-c1cn(CC2OCC(C)(C)O2)nn1` (stereo not drawn) [Compound I-602] yielded an inhibition at 10 µM of no more than 25%.
Compound `CC(C)Oc1cc(N2CC(C)(CO)C2)cnc1-c1cn(CC2CC(C)(C)CO2)nn1` (stereo not drawn) [Compound I-501] yielded an inhibition at 10 µM greater than 75% and an IC50 of 1000 to 3000 nM.
In turn, `C(#CC1CC1)c1ccc(-c2cn(C[C@H]3CCCCO3)nn2)cc1` [Compound I-24] displayed an inhibition at 25 µM greater than 75% and an IC50 greater than 3000 nM.
`Cc1cc(C#CCNC(=O)OCc2ccccc2)ccc1-c1cn(CC2CCCCO2)nn1` (stereo not drawn) [Compound I-608] returned an inhibition at 10 µM greater than 75% and an IC50 of 300 to 1000 nM.
